US20220235043A1, “SUBSTITUTED SULFONAMIDE PYRROLOPYRIDINES AS JAK INHIBITORS” (ACLARIS THERAPEUTICS, INC., priority 2019, published 2022)

Tests used:
[1] = target: T1, JAK3 (a.a. 781-1124) (Homo sapiens, UniProt P52333); test: JAK3 enzyme activity assay (SRCtide phosphorylation, Caliper); type: biochemical; details: 1 uM ATP; read-out: JAK3 Inhibition IC50
T1 construct: JAK3 (a.a. 781-1124, ThermoFisher); purchased ThermoFisher
Description: The activity of JAK3 (a.a. 781-1124, ThermoFisher) was quantified by measuring the phosphorylation of SRCtide (FAM-GEEPLYWSFPAKKK-NH2). Kinase reactions were run in a 384-well Greiner plate with 2% final DMSO concentration under the buffer conditions of 20 mM HEPES, pH 7.5, 10 mM MgCl2, 0.01% BSA, and 0.0005% Tween-20. The kinase reaction components were 2.5 nM JAK3, 1 μM SRCtide peptide and 1 uM ATP. Examples were tested in dose-response starting at […] (11 concentrations, 3-fold serial dilution, duplicate reactions). The reactions were incubated at room temperature for 40 minutes, then stopped by adding a 1:1 volume of 30 mM EDTA in 20 mM HEPES, pH 7.5 (15 mM EDTA final). After the reaction was stopped, the phosphorylated and unphosphorylated peptides were separated and quantified using a Caliper LC3000/EZ-Reader system and HTS Well Analyzer Software (Caliper, A PerkinElmer Company, Hopkinton, Mass.). GraFit (Erithacus Software Ltd., Horley, U.K.) was used to calculate inhibitor potency by fitting dose-response data to the 4-parameter logistical IC50 equation.

[2] = target: T2, JAK1 (Homo sapiens, UniProt P23458); test: JAK1 enzyme activity assay (Thermo Fisher Selectscreen, Z-lyte); type: biochemical; details: read-out: JAK1 Inhibition IC50
T2 construct: purchased Thermo Fisher Scientific (SelectScreen service)
T2 sequence (P23458 whole entry): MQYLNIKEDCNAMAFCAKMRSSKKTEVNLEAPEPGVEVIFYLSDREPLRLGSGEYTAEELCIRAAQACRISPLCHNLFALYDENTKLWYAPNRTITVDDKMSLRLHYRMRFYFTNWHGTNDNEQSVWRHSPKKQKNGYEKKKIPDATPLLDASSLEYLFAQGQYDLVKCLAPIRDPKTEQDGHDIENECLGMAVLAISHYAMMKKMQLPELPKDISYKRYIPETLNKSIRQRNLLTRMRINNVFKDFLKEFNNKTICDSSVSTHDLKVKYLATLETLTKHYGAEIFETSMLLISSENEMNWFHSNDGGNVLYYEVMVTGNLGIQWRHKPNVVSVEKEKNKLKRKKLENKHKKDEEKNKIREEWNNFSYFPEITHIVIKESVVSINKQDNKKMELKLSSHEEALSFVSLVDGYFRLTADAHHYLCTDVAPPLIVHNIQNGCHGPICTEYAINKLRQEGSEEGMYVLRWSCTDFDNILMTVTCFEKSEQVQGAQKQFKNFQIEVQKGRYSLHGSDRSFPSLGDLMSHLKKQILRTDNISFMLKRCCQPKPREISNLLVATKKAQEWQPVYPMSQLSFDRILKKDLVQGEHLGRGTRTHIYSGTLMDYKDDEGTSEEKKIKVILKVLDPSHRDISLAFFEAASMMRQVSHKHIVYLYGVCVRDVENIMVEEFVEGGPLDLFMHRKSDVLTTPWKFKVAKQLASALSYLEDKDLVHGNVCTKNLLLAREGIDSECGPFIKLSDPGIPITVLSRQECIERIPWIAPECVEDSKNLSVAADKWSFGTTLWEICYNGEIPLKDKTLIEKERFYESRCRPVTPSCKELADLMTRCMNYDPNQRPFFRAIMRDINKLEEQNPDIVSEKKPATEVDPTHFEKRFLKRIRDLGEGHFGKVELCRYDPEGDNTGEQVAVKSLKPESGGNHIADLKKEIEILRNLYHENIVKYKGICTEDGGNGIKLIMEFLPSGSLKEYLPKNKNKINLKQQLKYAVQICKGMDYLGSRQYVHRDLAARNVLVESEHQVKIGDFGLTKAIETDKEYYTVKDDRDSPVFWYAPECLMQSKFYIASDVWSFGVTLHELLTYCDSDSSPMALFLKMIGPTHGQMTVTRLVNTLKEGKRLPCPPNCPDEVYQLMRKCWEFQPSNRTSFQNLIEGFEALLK
Description: (§1) The inhibitory potency of candidate compounds of JAK1, JAK2, and Tyk-2 was done at Thermo Fisher Scientific in their Selectscreen using a Z-lyte assay. Following are the assay details for each enzyme.
JAK1: The 2×JAK-enzyme/Tyr 06 mixture is prepared in 50 mM HEPES pH 6.5, 0.01% BRIJ-35, 10 mM MgCl2, 1 mM EGTA, 0.02% NaN3. The final 10 μL of the Kinase Reaction consists of 21.2-91.5 ng JAK1 and 2 μM Tyr 06 in 50 mM HEPES pH 7.0, 0.01% BRIJ-35, 10 mM MgCl2, 1 mM EGTA, 0.01% NaN3. After the one hour Kinase Reaction incubation, 5 μL of a 1:128 dilution of Development Reagent is added.
(§2) Data reduction for JAK1, JAK2 and TYK2 is done the same, independent of the enzyme run. In summary, background signal is defined in the absence of enzyme and uninhibited signal is defined in the presence of vehicle (2% DMSO) alone. Compounds were evaluated in an 11 point dose-response ranging from […] to 0.34 nM. IC50 values of compounds are determined using a 4 parameter logistical fit of emission ratio as a function of the concentration of compound.

[3] = system: IL-2 stimulated STAT5 phosphorylation on Tyr694 (JAK1/3); test: JAK1/3 cellular target modulation: IL-2 stimulated phospho-STAT5 in human PBMC; type: cell-based; details: IL-2 25 ng/ml, read-out: IL2-STAT5 IC50
From the text: (§3) Target modulation was based upon the ability of a compound to inhibit JAK isoform specific phosphorylation of selected substrates. IL-2 stimulated STAT5 phosphorylation on Tyr694 was used to assess JAK1/3 compound selectivity. GM-CSF stimulated STAT5 phosphorylation on Tyr694 was used to assess JAK2 compound selectivity. IFNγ stimulated STAT1 phosphorylation on Tyr701 was used to assess JAK1/2 compound selectivity. IL-12 stimulated STAT4 phosphorylation on Tyr693 was used to assess JAK2/TYK2 compound selectivity. For all four assays, human PBMC from frozen stocks were thawed, pelleted, resuspended in complete media (90% RPMI, 10% heat inactivated FBS, 10 mM HEPES, 47 μM 2-ME, pen/strep) and placed in wells of a 96 well V-bottom plate at 200,000 per well in 120 μl complete media. Compounds were added as 15 μl per well of 10× working stock solutions in complete media with 1% DMSO (or medium with 1% DMSO for controls) and placed on a plate shaker in a 37° C. incubator with 5% CO2 for 1 hour with gentle shaking (setting of 3). Stimulation used the addition of soluble cytokines. For the JAK1/3 phospho-STAT5 assay, 15 μl of 10× working stock recombinant human IL-2 was added to a final concentration of 25 ng/ml. For the JAK2 phospho-STAT5 assay, 15 μl of 10× working stock recombinant human GM-CSF was added to a final concentration of 5 ng/ml. For the JAK1/2 phospho-STAT1 assay, 15 μl of 10× working stock of recombinant human IFNγ was added to a final concentration of 10 ng/ml. For the JAK2/TYK2 phospho-STAT4 assay, 15 μl of 10× working stock of recombinant human IL-12 was added to a final concentration of 1.7 ng/ml. Plates were then placed back on the plate shaker in the incubator for an additional 5, 5, 10, and 25 minutes respectively upon which the plates were removed from the incubator, sealed with a plate sealer and the cells pelleted at 400×g for 5 minutes. After pelleting, the media was removed by aspiration and the cells were lysed in assay specific cell lysis buffer. The levels of phospho-STAT5 were determined using a Phospho (Tyr694)STAT5a,b Whole Cell Lysate kit from Meso Scale Discovery. Levels of phospho-STAT1 were determined using a CST-PathScan Phospho-STAT1 (Tyr701) Sandwich ELISA kit. Levels of phospho-STAT4 were determined using a Phospho-STAT4 (Tyr693) Whole Cell Lysate kit from Meso Scale Discovery.

[4] = system: IFNγ stimulated STAT1 phosphorylation on Tyr701 (JAK1/2); test: JAK1/2 cellular target modulation: IFNγ stimulated phospho-STAT1 in human PBMC; type: cell-based; details: IFNγ 10 ng/ml, read-out: Infγ-STAT1 IC50
From the text: as §3

[5] = target: T3, JAK2 (Homo sapiens, UniProt O60674); test: JAK2 enzyme activity assay (Thermo Fisher Selectscreen, Z-lyte); type: biochemical; details: read-out: JAK2 Inhibition IC50
T3 construct: purchased Thermo Fisher Scientific (SelectScreen service)
T3 sequence (O60674 whole entry): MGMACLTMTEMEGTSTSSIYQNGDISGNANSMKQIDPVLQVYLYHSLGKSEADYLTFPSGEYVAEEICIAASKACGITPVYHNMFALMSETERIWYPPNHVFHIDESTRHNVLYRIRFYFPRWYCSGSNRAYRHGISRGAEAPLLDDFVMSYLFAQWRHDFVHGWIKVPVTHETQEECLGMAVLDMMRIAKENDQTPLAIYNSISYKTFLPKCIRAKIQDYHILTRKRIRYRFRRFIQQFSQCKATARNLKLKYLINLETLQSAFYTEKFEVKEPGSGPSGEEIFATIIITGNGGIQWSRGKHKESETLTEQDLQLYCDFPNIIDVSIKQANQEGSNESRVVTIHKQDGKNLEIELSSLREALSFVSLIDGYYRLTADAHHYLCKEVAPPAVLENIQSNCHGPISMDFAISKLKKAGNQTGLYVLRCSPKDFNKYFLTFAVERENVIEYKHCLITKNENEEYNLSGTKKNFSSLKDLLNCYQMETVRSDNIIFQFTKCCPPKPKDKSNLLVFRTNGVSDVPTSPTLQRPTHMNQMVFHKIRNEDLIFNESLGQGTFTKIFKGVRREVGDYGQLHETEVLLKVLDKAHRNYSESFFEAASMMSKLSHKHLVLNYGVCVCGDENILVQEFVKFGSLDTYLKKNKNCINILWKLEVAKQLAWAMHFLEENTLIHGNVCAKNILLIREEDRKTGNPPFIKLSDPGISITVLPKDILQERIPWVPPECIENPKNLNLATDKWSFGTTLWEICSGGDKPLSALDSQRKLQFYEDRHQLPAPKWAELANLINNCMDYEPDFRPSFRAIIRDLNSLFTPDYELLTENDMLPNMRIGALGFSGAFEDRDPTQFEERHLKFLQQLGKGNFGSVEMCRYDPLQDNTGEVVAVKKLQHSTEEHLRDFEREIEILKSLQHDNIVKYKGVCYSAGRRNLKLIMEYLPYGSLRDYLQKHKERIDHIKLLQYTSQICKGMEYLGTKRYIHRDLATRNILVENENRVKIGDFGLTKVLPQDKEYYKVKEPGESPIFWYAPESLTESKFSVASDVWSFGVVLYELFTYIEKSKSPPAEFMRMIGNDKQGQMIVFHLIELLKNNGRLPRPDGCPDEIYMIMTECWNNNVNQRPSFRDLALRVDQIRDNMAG
Description: as §1
JAK2: The 2×JAK2/Tyr 06 mixture is prepared in 50 mM HEPES pH 7.5, 0.01% BRIJ-35, 10 mM MgCl2, 1 mM EGTA. The final 10 μL Kinase Reaction consists of 0.12-0.5 ng JAK2 and 2 μM Tyr 06 in 50 mM HEPES pH 7.5, 0.01% BRIJ-35, 10 mM MgCl2, 1 mM EGTA. After the one hour Kinase Reaction incubation, 5 μL of a 1:128 dilution of Development Reagent A is added.
as §2

[6] = target: T4, Tyk-2 (Homo sapiens, UniProt P29597); test: Tyk-2 enzyme activity assay (Thermo Fisher Selectscreen, Z-lyte); type: biochemical; details: read-out: Tyk-2 Inhibition IC50
T4 construct: purchased Thermo Fisher Scientific (SelectScreen service)
T4 sequence (P29597 whole entry): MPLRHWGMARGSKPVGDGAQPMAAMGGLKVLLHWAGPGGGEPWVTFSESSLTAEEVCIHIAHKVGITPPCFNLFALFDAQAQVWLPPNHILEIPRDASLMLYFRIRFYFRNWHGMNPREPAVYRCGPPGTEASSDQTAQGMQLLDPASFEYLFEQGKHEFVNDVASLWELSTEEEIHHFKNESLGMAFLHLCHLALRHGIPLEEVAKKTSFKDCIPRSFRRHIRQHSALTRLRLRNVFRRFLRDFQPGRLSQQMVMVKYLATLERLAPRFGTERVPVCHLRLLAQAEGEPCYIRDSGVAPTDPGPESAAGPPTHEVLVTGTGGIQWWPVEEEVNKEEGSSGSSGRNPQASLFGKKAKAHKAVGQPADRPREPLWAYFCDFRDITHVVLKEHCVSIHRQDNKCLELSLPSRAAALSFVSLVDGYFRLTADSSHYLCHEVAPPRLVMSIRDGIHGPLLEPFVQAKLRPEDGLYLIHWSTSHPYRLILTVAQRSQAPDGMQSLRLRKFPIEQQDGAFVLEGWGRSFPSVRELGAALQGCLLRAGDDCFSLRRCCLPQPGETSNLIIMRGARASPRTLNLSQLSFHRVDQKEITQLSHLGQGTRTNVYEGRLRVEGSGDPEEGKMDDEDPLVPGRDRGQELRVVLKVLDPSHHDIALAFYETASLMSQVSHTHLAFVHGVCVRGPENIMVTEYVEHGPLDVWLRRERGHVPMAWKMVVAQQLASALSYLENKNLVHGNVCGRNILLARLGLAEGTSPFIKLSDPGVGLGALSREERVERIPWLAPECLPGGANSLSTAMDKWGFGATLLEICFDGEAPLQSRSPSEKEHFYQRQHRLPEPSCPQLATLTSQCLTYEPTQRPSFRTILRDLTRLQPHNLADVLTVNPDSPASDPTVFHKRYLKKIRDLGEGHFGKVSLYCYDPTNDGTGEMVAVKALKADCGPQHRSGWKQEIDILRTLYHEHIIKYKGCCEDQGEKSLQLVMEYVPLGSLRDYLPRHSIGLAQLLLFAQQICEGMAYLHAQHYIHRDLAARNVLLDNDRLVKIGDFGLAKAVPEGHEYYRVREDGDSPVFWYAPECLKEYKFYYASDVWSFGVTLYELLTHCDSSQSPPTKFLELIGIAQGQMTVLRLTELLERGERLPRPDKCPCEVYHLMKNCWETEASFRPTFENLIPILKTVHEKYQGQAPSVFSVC
Description: as §1
TYK2: The 2×TYK2/Tyr 03 mixture is prepared in 50 mM HEPES pH 6.5, 0.01% BRIJ-35, 10 mM MgCl2, 1 mM EGTA, 0.02% NaN3. The final 10 μL Kinase Reaction consists of 3.75-15 ng TYK2 and 2 μM Tyr 03 in 50 mM HEPES pH 7.0, 0.01% BRIJ-35, 10 mM MgCl2, 1 mM EGTA, 0.01% NaN3. After the one hour KinaseReaction incubation, 5 μL of a 1:4096 dilution of Development Reagent A is added.
as §2

[7] = system: IL-12 stimulated STAT4 phosphorylation on Tyr693 (JAK2/TYK2); test: JAK2/TYK2 cellular target modulation: IL-12 stimulated phospho-STAT4 in human PBMC; type: cell-based; details: IL-12 1.7 ng/ml, read-out: IL12-STAT4 IC50
From the text: as §3

T1 sequence (P52333 781-1124): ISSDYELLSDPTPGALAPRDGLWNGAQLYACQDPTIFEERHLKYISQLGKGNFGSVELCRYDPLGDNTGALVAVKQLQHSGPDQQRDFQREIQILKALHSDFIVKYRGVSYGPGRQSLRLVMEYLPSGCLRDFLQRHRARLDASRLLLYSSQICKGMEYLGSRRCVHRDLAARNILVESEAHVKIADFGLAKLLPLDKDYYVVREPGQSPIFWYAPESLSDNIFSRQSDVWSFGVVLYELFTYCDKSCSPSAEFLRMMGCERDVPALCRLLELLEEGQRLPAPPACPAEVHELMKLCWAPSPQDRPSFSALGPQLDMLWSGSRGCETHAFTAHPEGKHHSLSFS

Work on `Cc1csc(-c2cnc3[nH]ccc3c2N[C@H]2C[C@@H](NS(=O)(=O)c3cccc(C#N)c3)C2)n1` [Example 73, 3-cyano-N-((1s,3s)-3-((5-(4-methylthiazol-2-yl)-1H-pyrrolo[2,3-b]pyridin-4-yl)amino)cyclobutyl)benzenesulfonamide] yielded an IC50 [1] of no more than 10 nM, an IC50 [2] of no more than 10 nM and an IC50 [3] of 100 to 1000 nM. It also gave an IC50 [4] of 100 to 1000 nM, an IC50 [5] of no more than 10 nM and an IC50 [6] of 10 to 100 nM. It also gave an IC50 [7] of 100 to 1000 nM.

For `Cc1cnc(-c2cnc3[nH]ccc3c2N[C@H]2C[C@@H](NS(=O)(=O)c3cccc(C#N)c3)C2)s1` [Example 74, 3-cyano-N-((1s,3s)-3-((5-(5-methylthiazol-2-yl)-1H-pyrrolo[2,3-b]pyridin-4-yl)amino)cyclobutyl)benzenesulfonamide], the IC50 [1] was no more than 10 nM, the IC50 [2] was no more than 10 nM and the IC50 [3] was no more than 100 nM. The IC50 [4] was 100 to 1000 nM, the IC50 [5] was 10 to 100 nM and the IC50 [6] was 10 to 100 nM. For the same molecule, the IC50 [7] was 100 to 1000 nM.

`CCCS(=O)(=O)N[C@H]1C[C@@H](Nc2c(-c3nnc(C)s3)cnc3[nH]ccc23)C1` [Example 76, N-((1s,3s)-3-((5-(5-methyl-1,3,4-thiadiazol-2-yl)-1H-pyrrolo[2,3-b]pyridin-4-yl)amino)cyclobutyl)propane-1-sulfonamide] was tested, and the IC50 [1] was 10 to 100 nM, the IC50 [2] was 10 to 100 nM and the IC50 [3] was 100 to 1000 nM. For the same molecule, the IC50 [4] was 100 to 1000 nM, the IC50 [5] was 10 to 100 nM and the IC50 [6] was 10 to 100 nM. For the same molecule, the IC50 [7] was greater than 1000 nM.

`Cc1nnc(-c2cnc3[nH]ccc3c2N[C@H]2C[C@@H](NS(=O)(=O)CCCC#N)C2)s1` [Example 77, 3-cyano-N-((1s,3s)-3-((5-(5-methyl-1,3,4-thiadiazol-2-yl)-1H-pyrrolo[2,3-b]pyridin-4-yl)amino)cyclobutyl)propane-1-sulfonamide] showed an IC50 [1] of 10 to 100 nM, an IC50 [2] of no more than 10 nM and an IC50 [3] of 100 to 1000 nM. It also gave an IC50 [4] of 100 to 1000 nM, an IC50 [5] of no more than 10 nM and an IC50 [6] of 10 to 100 nM. It also gave an IC50 [7] greater than 1000 nM.

`N#Cc1cccc(S(=O)(=O)N[C@H]2C[C@@H](Nc3c(-c4nncs4)cnc4[nH]ccc34)C2)c1` [Example 78, N-((1s,3s)-3-((5-(1,3,4-thiadiazol-2-yl)-1H-pyrrolo[2,3-b]pyridin-4-yl)amino)cyclobutyl)-3-cyanobenzenesulfonamide] was tested, and the IC50 [1] was 10 to 100 nM, the IC50 [2] was no more than 10 nM and the IC50 [3] was no more than 100 nM. It also gave an IC50 [4] of 100 to 1000 nM, an IC50 [5] of no more than 10 nM and an IC50 [6] of no more than 10 nM. For the same molecule, the IC50 [7] was greater than 1000 nM.

Work on `N#Cc1cccc(S(=O)(=O)N[C@H]2C[C@@H](Nc3c(-c4nnco4)cnc4[nH]ccc34)C2)c1` [Example 79, N-((1s,3s)-3-((5-(1,3,4-oxadiazol-2-yl)-1H-pyrrolo[2,3-b]pyridin-4-yl)amino)cyclobutyl)-3-cyanobenzenesulfonamide] yielded an IC50 [1] of 10 to 100 nM, an IC50 [2] of no more than 10 nM and an IC50 [3] of 100 to 1000 nM. It also gave an IC50 [4] of 100 to 1000 nM, an IC50 [5] of no more than 10 nM and an IC50 [6] of 10 to 100 nM. The IC50 [7] was greater than 1000 nM.

Work on `Cc1nnc(-c2cnc3[nH]ccc3c2N[C@H]2C[C@@H](NS(=O)(=O)c3cccc(C#N)c3)C2)o1` [Example 81, 3-cyano-N-((1s,3s)-3-((5-(5-methyl-1,3,4-oxadiazol-2-yl)-1H-pyrrolo[2,3-b]pyridin-4-yl)amino)cyclobutyl)benzenesulfonamide] yielded an IC50 [1] of 10 to 100 nM, an IC50 [2] of no more than 10 nM and an IC50 [3] of no more than 100 nM. For the same molecule, the IC50 [4] was 100 to 1000 nM, the IC50 [5] was no more than 10 nM and the IC50 [6] was 10 to 100 nM. It also gave an IC50 [7] greater than 1000 nM.

`CCCS(=O)(=O)N[C@H]1C[C@@H](Nc2c(-c3nnc(C)o3)cnc3[nH]ccc23)C1` [Example 82, N-((1s,3s)-3-((5-(5-methyl-1,3,4-oxadiazol-2-yl)-1H-pyrrolo[2,3-b]pyridin-4-yl)amino)cyclobutyl)propane-1-sulfonamide] was tested, and the IC50 [1] was 100 to 1000 nM, the IC50 [2] was 10 to 100 nM and the IC50 [3] was 100 to 1000 nM. For the same molecule, the IC50 [4] was greater than 1000 nM, the IC50 [5] was 10 to 100 nM and the IC50 [6] was 100 to 1000 nM. For the same molecule, the IC50 [7] was greater than 1000 nM.

With `Cc1nccc(-c2cnc3[nH]ccc3c2N[C@H]2C[C@@H](NS(=O)(=O)c3cccc(C#N)c3)C2)n1` [Example 84, 3-cyano-N-((1s,3s)-3-((5-(2-methylpyrimidin-4-yl)-1H-pyrrolo[2,3-b]pyridin-4-yl)amino)cyclobutyl)benzenesulfonamide] the IC50 [1] was no more than 10 nM, the IC50 [2] was no more than 10 nM and the IC50 [3] was no more than 100 nM. It also gave an IC50 [4] of 100 to 1000 nM, an IC50 [5] of no more than 10 nM and an IC50 [6] of no more than 10 nM. For the same molecule, the IC50 [7] was greater than 1000 nM.

`Cc1nccc(-c2cnc3[nH]ccc3c2N[C@H]2C[C@@H](NS(=O)(=O)c3cc(C#N)ccn3)C2)n1` [Example 85, 4-cyano-N-((1s,3s)-3-((5-(2-methylpyrimidin-4-yl)-1H-pyrrolo[2,3-b]pyridin-4-yl)amino)cyclobutyl)pyridine-2-sulfonamide] gave an IC50 [1] of 10 to 100 nM, an IC50 [2] of no more than 10 nM and an IC50 [3] of 100 to 1000 nM. For the same molecule, the IC50 [4] was 100 to 1000 nM, the IC50 [5] was no more than 10 nM and the IC50 [6] was 10 to 100 nM. For the same molecule, the IC50 [7] was greater than 1000 nM.
